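The compound was tested at five concentrations on cells cultured in 96-well plates, with a 48-hour exposure period. GI50 is the concentration that inhibits growth by half.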 Active and inactive are the calls of the source. No stated cut-off is given here; in the data, active = GI50 up to about 1.1 µM and inactive = higher.
Columns and labels:
Assay in all cases: growth of human tumour cells (NCI), 48 h
HCT-15 = system: HCT-15
NCI-H23 = system: NCI-H23
LOX IMVI = system: LOX IMVI
RPMI-8226 = system: RPMI-8226
CCRF-CEM = system: CCRF-CEM
HT-29 = system: HT-29
CAKI-1 = system: CAKI-1
SW-620 = system: SW-620
T47D = system: T47D
MDA-MB-435 = system: MDA-MB-435
IGROV-1 = system: IGROV-1
SK-MEL-2 = system: SK-MEL-2
SF-295 = system: SF-295
SK-OV-3 = system: SK-OV-3
SNB-19 = system: SNB-19
SNB-75 = system: SNB-75
COLO 205 = system: COLO 205
MOLT-4 = system: MOLT-4
MCF7 = system: MCF7
UO-31 = system: UO-31
OVCAR-5 = system: OVCAR-5
U-251 = system: U-251
ACHN = system: ACHN
SK-MEL-5 = system: SK-MEL-5
M14 = system: M14
MDA-MB-231 = system: MDA-MB-231
OVCAR-3 = system: OVCAR-3
MDA-N = system: MDA-N
TK-10 = system: TK-10
HCT-116 = system: HCT-116
DU-145 = system: DU-145
BT-549 = system: BT-549
OVCAR-8 = system: OVCAR-8
Hs-578T = system: Hs-578T
KM12 = system: KM12
NCI-H460 = system: NCI-H460
SN12C = system: SN12C
NCI-H226 = system: NCI-H226
PC-3 = system: PC-3
UACC-257 = system: UACC-257
K562 = system: K562
HL-60 = system: HL-60
EKVX = system: EKVX
SK-MEL-28 = system: SK-MEL-28
A498 = system: A498
SF-268 = system: SF-268
UACC-62 = system: UACC-62
HOP-62 = system: HOP-62
NCI/ADR-RES = system: NCI/ADR-RES
A549 = system: A549
SF-539 = system: SF-539
786-0 = system: 786-0
SR = system: SR
NCI-H522 = system: NCI-H522
OVCAR-4 = system: OVCAR-4

In the case of `COC(=O)/C=C/c1ccc2nncnc2c1.COC(=O)/C=C\c1ccc2nncnc2c1`, the GI50 (HCT-15) is reported as 29 µM, the GI50 (NCI-H23) is reported as 10 µM (inactive) and the GI50 (LOX IMVI) is reported as 33.9 µM (inactive). The GI50 (RPMI-8226) was > 100 µM (inactive), the GI50 (CCRF-CEM) was > 100 µM (inactive) and the GI50 (HT-29) was 20 µM (inactive). For the same compound, the GI50 (CAKI-1) was > 100 µM (inactive), the GI50 (SW-620) was 87.9 µM (inactive) and the GI50 (T47D) was 98.4 µM (inactive). The GI50 (MDA-MB-435) was 17.9 µM (inactive), the GI50 (IGROV-1) was 85.5 µM (inactive) and the GI50 (SK-MEL-2) was 48.6 µM (inactive). For the same compound, the GI50 (SF-295) was 23.4 µM (inactive), the GI50 (SK-OV-3) was > 100 µM (inactive) and the GI50 (SNB-19) was 57.4 µM (inactive). The GI50 (SNB-75) was 18.7 µM (inactive), the GI50 (COLO 205) was 21.6 µM (inactive) and the GI50 (MOLT-4) was 55.6 µM (inactive). For the same compound, the GI50 (MCF7) was 42.5 µM (inactive), the GI50 (UO-31) was 56.1 µM (inactive) and the GI50 (OVCAR-5) was > 100 µM (inactive). The GI50 (U-251) was 79.1 µM (inactive), the GI50 (ACHN) was > 100 µM (inactive) and the GI50 (SK-MEL-5) was 8.17 µM (inactive). For the same compound, the GI50 (M14) was 21 µM (inactive), the GI50 (MDA-MB-231) was > 100 µM (inactive) and the GI50 (OVCAR-3) was 32.7 µM (inactive). The GI50 (MDA-N) was 20.9 µM (inactive), the GI50 (TK-10) was > 100 µM (inactive) and the GI50 (HCT-116) was 81.5 µM (inactive). For the same compound, the GI50 (DU-145) was 28.7 µM (inactive), the GI50 (BT-549) was 60.8 µM (inactive) and the GI50 (OVCAR-8) was 57.9 µM (inactive). For the same compound, the GI50 (Hs-578T) was 9.14 µM (inactive), the GI50 (KM12) was 31.6 µM (inactive) and the GI50 (NCI-H460) was 10 µM (inactive). The GI50 (SN12C) was > 100 µM (inactive), the GI50 (NCI-H226) was > 100 µM (inactive) and the GI50 (PC-3) was 34.7 µM (inactive). For the same compound, the GI50 (UACC-257) was 16.9 µM (inactive), the GI50 (K562) was 43 µM (inactive) and the GI50 (HL-60) was 96.4 µM (inactive). The GI50 (EKVX) was > 100 µM (inactive), the GI50 (SK-MEL-28) was 43.8 µM (inactive) and the GI50 (A498) was 71.8 µM (inactive). The GI50 (SF-268) was 75.7 µM (inactive), the GI50 (UACC-62) was 15.7 µM (inactive) and the GI50 (HOP-62) was 70.5 µM (inactive). For the same compound, the GI50 (NCI/ADR-RES) was 62.4 µM (inactive), the GI50 (A549) was 21.2 µM (inactive) and the GI50 (SF-539) was 31.9 µM (inactive). For the same compound, the GI50 (786-0) was > 100 µM (inactive), the GI50 (SR) was 56.9 µM (inactive) and the GI50 (NCI-H522) was 28.5 µM (inactive). The GI50 (OVCAR-4) was > 100 µM (inactive).

From ChEMBL document CHEMBL1201862, “PubChem BioAssay data set” (2004)
